{"source": "ChEMBL document CHEMBL4251622", "about": "“Design, synthesis, and biological evaluation of polo-like kinase 1/eukaryotic elongation factor 2 kinase (PLK1/EEF2K) dual inhibitors for regulating breast cancer cells apoptosis and autophagy” (Eur J Med Chem, 2018)", "key": {"[1]": {"target": "Serine/threonine-protein kinase PLK1 (Homo sapiens, UniProt P53350)", "sequence (P53350 whole entry)": "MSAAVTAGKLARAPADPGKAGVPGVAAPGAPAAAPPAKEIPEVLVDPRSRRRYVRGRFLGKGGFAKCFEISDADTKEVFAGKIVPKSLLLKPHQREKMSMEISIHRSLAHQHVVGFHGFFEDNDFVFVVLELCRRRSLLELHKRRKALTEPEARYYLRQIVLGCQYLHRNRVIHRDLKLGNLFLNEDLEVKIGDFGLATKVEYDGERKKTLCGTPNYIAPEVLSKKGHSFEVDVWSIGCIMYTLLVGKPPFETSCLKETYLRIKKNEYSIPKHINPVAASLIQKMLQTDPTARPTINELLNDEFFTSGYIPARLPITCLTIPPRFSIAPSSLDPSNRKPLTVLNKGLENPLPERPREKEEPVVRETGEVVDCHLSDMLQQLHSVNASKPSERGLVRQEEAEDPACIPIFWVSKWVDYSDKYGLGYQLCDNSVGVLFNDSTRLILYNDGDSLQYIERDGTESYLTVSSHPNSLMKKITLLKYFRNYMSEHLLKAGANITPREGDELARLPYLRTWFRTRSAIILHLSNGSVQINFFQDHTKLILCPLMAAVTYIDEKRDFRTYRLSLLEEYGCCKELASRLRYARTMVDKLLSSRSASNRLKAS", "test": "Inhibition of full length human PLK1 using casein as substrate after 40 mins in presence of [gamma-33P]-ATP by radiometric assay"}, "BT-483 [2]": {"system": "BT-483", "test": "Induction of apoptosis in human BT-483 cells assessed as late apoptotic cells at 10 uM by Annexin V-FITC/propidium iodide staining based flow cytometry (reference value: 0.36%)", "type": "functional"}, "SK-BR-3": {"system": "SK-BR-3", "test": "Cytotoxicity against human SKBR3 cells after 24 hrs by MTT assay", "type": "functional, cell-based"}, "BT-483 [3]": {"system": "BT-483", "test": "Induction of autophagy in human BT-483 cells assessed as degradation of SQSTM1 protein at 5 to 10 uM by Western blot analysis", "type": "functional, cell-based"}, "BT-483 [4]": {"system": "BT-483", "test": "Effect on FADD protein expression in human BT-483 cells at 5 to 10 uM by Western blot analysis", "type": "functional, cell-based"}, "[5]": {"system": "Tyrosine-protein kinase ABL1 (Homo sapiens), P00519 [T315I]", "test": "Inhibition of human phosphorylated ABL1 T315I mutant (S229 to K512 residues) expressed in mammalian expression system assessed as residual activity at 1 uM by Kinomescan method relative to control"}, "[6]": {"target": "RAC-alpha serine/threonine-protein kinase (Homo sapiens) (UniProt P31749)", "sequence (P31749 whole entry)": "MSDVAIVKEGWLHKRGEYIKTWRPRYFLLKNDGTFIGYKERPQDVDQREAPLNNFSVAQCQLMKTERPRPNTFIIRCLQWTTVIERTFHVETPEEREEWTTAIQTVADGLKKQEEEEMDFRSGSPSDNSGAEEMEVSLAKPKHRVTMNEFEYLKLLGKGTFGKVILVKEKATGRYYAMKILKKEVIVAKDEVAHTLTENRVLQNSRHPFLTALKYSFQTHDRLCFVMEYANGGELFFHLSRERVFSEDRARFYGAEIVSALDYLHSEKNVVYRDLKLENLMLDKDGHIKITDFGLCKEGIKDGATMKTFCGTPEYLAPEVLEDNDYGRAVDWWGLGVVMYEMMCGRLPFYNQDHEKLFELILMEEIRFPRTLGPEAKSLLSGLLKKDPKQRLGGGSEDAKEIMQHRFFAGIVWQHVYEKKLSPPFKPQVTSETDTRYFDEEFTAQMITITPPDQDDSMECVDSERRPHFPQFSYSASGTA", "test": "Inhibition of wild-type human partial length AKT1 expressed in bacterial expression system assessed as residual activity at 1 uM by Kinomescan method relative to control"}, "[7]": {"target": "Aurora kinase B (Homo sapiens) (UniProt Q96GD4)", "sequence (Q96GD4 whole entry, the tested form may be a part)": "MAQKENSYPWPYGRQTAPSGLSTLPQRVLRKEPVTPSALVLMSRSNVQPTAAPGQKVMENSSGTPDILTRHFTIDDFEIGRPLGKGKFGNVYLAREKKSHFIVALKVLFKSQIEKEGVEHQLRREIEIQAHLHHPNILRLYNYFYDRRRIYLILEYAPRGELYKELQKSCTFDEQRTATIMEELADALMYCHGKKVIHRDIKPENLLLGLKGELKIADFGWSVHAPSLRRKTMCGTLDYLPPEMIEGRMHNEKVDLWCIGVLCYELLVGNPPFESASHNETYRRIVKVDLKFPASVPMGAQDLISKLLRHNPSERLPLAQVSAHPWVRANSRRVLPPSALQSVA", "test": "Inhibition of wild-type human partial length AURKB (D25 to A303 residues) expressed in mammalian expression system assessed as residual activity at 1 uM by Kinomescan method relative to control"}, "[8]": {"target": "Tyrosine-protein kinase BTK (Homo sapiens) (UniProt Q06187)", "sequence (Q06187 whole entry, the tested form may be a part)": "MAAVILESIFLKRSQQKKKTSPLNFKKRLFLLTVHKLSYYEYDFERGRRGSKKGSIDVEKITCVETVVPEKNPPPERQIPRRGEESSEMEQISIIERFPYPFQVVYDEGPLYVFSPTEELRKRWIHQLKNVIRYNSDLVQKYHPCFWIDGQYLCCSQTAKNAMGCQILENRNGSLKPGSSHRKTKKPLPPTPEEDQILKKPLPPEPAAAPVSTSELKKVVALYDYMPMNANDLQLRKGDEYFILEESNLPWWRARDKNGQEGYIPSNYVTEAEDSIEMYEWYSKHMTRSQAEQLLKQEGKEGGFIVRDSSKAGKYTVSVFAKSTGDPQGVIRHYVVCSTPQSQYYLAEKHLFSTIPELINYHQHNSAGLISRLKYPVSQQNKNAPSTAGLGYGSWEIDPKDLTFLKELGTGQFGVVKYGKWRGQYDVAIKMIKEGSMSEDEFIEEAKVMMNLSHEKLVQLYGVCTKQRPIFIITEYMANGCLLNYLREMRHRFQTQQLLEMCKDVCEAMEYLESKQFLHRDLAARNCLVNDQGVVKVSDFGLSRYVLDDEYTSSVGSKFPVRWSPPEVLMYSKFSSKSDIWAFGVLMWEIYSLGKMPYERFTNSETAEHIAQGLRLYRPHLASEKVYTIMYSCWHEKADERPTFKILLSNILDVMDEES", "test": "Inhibition of wild-type human full length BTK (M1 to S659 residues) expressed in mammalian expression system assessed as residual activity at 1 uM by Kinomescan method relative to control"}, "[9]": {"target": "Cyclin-dependent kinase 2 (Homo sapiens) (UniProt P24941)", "test": "Inhibition of wild-type human full length CDK2 (M1 to L298 residues) expressed in bacterial expression system assessed as residual activity at 1 uM by Kinomescan method relative to control"}, "[10]": {"target": "Dual specificity tyrosine-phosphorylation-regulated kinase 1B (Homo sapiens) (UniProt Q9Y463)", "test": "Inhibition of wild-type human full length DYRK1B (M1 to S629 residues) expressed in bacterial expression system assessed as residual activity at 1 uM by Kinomescan method relative to control"}, "[11]": {"target": "T1, Eukaryotic elongation factor 2 kinase (Homo sapiens) (UniProt O00418)", "T1 sequence (whole entry)": "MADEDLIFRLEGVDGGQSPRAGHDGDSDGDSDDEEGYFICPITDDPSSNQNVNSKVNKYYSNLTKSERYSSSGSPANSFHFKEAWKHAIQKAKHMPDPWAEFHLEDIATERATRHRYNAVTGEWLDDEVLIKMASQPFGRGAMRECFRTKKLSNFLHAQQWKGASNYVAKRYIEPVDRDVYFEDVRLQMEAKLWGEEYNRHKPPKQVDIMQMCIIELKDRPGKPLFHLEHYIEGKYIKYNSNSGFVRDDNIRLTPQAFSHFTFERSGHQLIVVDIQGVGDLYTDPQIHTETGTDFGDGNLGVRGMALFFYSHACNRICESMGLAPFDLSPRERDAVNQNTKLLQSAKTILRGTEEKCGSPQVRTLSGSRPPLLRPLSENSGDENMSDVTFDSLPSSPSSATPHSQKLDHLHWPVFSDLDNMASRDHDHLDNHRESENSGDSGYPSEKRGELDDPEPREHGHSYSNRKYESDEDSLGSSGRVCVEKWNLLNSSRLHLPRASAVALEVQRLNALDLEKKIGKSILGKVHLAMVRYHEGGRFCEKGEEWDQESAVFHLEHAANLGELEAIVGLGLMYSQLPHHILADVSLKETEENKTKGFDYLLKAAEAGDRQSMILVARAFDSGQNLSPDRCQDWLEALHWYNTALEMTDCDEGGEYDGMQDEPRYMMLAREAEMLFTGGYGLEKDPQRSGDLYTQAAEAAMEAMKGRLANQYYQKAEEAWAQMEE", "test": "Inhibition of EEF2K (unknown origin) assessed as residual activity at 1 uM by Kinomescan assay relative to control"}, "[12]": {"target": "Focal adhesion kinase 1 (Homo sapiens) (UniProt Q05397)", "sequence (Q05397 2-1052 limits assumed)": "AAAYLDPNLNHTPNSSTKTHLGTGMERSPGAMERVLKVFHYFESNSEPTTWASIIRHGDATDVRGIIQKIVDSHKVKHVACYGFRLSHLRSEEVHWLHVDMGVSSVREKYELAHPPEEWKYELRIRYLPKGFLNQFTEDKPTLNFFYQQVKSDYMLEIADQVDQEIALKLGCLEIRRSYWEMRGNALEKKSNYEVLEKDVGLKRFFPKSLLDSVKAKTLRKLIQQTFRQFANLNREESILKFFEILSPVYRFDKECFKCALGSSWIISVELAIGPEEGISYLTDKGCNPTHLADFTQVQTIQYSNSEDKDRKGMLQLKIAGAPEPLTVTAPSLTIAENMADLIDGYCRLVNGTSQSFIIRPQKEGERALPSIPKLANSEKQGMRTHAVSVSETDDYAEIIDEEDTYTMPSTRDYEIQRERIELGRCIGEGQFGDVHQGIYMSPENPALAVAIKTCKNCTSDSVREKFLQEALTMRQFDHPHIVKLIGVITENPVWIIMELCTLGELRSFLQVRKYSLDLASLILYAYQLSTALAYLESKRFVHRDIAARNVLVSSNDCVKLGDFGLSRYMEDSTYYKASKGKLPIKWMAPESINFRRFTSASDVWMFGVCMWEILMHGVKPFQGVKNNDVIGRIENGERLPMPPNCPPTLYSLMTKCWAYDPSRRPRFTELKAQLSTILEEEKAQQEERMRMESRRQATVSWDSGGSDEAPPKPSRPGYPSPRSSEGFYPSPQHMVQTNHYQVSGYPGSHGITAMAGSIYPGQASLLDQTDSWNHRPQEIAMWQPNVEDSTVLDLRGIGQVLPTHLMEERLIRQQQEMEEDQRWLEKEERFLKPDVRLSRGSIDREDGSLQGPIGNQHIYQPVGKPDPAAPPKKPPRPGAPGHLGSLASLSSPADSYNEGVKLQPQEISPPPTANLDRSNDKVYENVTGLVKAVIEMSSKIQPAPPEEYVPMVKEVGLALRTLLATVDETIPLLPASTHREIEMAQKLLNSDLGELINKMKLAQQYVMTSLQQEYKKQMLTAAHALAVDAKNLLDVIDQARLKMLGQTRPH", "test": "Inhibition of wild-type human partial length FAK (D402 to R696 residues) expressed in bacterial expression system assessed as residual activity at 1 uM by Kinomescan method relative to control"}, "[13]": {"target": "Receptor-type tyrosine-protein kinase FLT3 (Homo sapiens) (UniProt P36888)", "sequence (P36888 whole entry, the tested form may be a part)": "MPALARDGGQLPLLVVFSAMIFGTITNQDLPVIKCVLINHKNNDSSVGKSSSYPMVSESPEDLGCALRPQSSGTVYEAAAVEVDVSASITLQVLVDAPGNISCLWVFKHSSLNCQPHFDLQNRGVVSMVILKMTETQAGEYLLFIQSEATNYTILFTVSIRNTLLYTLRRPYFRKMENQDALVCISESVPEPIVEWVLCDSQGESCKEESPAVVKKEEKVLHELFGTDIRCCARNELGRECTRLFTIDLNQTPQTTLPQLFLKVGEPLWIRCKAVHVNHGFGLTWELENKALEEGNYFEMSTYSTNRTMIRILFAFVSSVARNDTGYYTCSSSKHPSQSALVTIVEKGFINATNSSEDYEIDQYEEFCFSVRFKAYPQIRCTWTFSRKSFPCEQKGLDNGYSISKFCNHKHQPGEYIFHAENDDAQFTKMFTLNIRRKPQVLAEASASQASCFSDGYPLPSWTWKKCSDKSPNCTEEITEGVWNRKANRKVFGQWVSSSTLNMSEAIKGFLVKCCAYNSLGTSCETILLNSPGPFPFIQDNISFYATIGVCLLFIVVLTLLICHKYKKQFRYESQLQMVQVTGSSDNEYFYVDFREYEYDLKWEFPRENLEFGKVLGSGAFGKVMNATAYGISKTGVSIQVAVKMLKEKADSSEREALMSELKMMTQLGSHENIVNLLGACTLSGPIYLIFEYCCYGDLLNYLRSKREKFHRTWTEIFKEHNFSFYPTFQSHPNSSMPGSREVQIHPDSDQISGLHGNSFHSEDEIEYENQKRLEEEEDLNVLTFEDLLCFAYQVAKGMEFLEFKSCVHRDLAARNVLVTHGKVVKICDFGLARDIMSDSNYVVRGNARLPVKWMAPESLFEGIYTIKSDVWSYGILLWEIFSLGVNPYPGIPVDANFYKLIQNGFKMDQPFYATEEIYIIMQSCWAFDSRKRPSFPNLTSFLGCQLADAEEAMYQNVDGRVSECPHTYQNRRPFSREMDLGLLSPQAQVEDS", "test": "Inhibition of wild-type human partial length FLT3 (V592 to Y969 residues) expressed in bacterial expression system assessed as residual activity at 1 uM by Kinomescan method relative to control"}, "[14]": {"target": "Glycogen synthase kinase-3 beta (Homo sapiens) (UniProt P49841)", "sequence (P49841 whole entry, looked up, the tested form may be a part)": "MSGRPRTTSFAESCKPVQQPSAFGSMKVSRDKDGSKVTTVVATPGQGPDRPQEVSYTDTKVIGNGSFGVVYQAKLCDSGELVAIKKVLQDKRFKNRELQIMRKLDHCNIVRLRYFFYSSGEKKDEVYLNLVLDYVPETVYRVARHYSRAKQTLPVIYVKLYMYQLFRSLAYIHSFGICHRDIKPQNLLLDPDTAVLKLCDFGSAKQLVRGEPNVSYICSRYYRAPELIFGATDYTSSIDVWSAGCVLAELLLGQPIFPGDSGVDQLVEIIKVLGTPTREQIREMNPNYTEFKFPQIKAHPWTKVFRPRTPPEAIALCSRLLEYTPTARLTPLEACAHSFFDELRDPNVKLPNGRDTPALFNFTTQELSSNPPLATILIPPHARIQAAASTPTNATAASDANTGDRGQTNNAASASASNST", "test": "Inhibition of wild-type human full length GSK3B (M1 to T433 residues) expressed in mammalian expression system assessed as residual activity at 1 uM by Kinomescan method relative to control"}, "[15]": {"target": "Insulin receptor (Homo sapiens) (UniProt P06213)", "test": "Inhibition of wild-type human partial length INSR (P997 to E1318 residues) expressed in mammalian expression system assessed as residual activity at 1 uM by Kinomescan method relative to control"}, "[16]": {"target": "MAP/microtubule affinity-regulating kinase 3 (Homo sapiens) (UniProt P27448)", "test": "Inhibition of wild-type human full length MARK3 (M1 to L729 residues) expressed in bacterial expression system assessed as residual activity at 1 uM by Kinomescan method relative to control"}, "[17]": {"target": "Dual specificity mitogen-activated protein kinase kinase 2 (Homo sapiens) (UniProt P36507)", "test": "Inhibition of wild-type human full length MEK2 (M1 to V400 residues) expressed in mammalian expression system assessed as residual activity at 1 uM by Kinomescan method relative to control"}, "[18]": {"target": "Cyclin-dependent kinase 16 (Homo sapiens) (UniProt Q00536)", "sequence (Q00536 whole entry, the tested form may be a part)": "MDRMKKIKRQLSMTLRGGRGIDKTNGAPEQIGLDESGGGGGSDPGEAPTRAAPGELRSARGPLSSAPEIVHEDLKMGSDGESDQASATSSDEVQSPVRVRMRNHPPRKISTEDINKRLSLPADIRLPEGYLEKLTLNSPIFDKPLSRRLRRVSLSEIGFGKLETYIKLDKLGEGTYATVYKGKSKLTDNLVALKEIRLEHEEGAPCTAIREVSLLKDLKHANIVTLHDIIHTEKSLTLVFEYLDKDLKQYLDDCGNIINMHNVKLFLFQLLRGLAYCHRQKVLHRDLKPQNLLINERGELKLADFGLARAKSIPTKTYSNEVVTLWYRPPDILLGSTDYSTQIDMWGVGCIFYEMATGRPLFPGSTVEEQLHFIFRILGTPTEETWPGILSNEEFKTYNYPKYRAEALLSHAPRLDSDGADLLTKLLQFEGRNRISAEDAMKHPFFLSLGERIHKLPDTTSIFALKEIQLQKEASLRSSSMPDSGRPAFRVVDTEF", "test": "Inhibition of wild-type human partial length PCTK1 (G160 to A474 residues) expressed in mammalian expression system assessed as residual activity at 1 uM by Kinomescan method relative to control"}, "[19]": {"target": "cAMP-dependent protein kinase catalytic subunit alpha (Homo sapiens) (UniProt P17612)", "test": "Inhibition of wild-type human partial length PKAC-alpha (G10 to F351 residues) expressed in bacterial expression system assessed as residual activity at 1 uM by Kinomescan method relative to control"}, "[20]": {"target": "Serine/threonine-protein kinase 32C (Homo sapiens) (UniProt Q86UX6)", "test": "Inhibition of wild-type human partial length YANK3 (M68 to G486 residues) expressed in bacterial expression system assessed as residual activity at 1 uM by Kinomescan method relative to control"}, "[21]": {"target": "Mitogen-activated protein kinase kinase kinase 7 (Homo sapiens) (UniProt O43318)", "test": "Inhibition of wild-type human partial length TAK1 (M1 to Q303 residues) expressed in mammalian expression system assessed as residual activity at 1 uM by Kinomescan method relative to control"}}, "note": "The source made the active and inactive calls. The rule behind the calls is not given here.", "data": [{"smiles": "CCNc1cc(-c2ccc(NC(=O)Nc3cccc(Cl)c3)cc2C(F)(F)F)ccn1", "values": [{"measurement": "IC50", "setting": "[1]", "result": 85, "unit": "nM"}, {"measurement": "Activity", "setting": "BT-483 [2]", "result": 12, "unit": "%"}, {"measurement": "Activity", "setting": "SK-BR-3", "result": "Active"}, {"measurement": "Activity", "setting": "BT-483 [3]", "result": "Active"}, {"measurement": "Activity", "setting": "BT-483 [4]", "result": "inactive"}, {"measurement": "Activity", "setting": "[5]", "result": 96, "unit": "%"}, {"measurement": "Activity", "setting": "[6]", "result": 90, "unit": "%"}, {"measurement": "Activity", "setting": "[7]", "result": 95, "unit": "%"}, {"measurement": "Activity", "setting": "[8]", "result": 83, "unit": "%"}, {"measurement": "Activity", "setting": "[9]", "result": 98, "unit": "%"}, {"measurement": "Activity", "setting": "[10]", "result": 93, "unit": "%"}, {"measurement": "Activity", "setting": "[11]", "result": 11, "unit": "%"}, {"measurement": "Activity", "setting": "[12]", "result": 76, "unit": "%"}, {"measurement": "Activity", "setting": "[13]", "result": 100, "unit": "%"}, {"measurement": "Activity", "setting": "[14]", "result": 80, "unit": "%"}, {"measurement": "Activity", "setting": "[15]", "result": 87, "unit": "%"}, {"measurement": "Activity", "setting": "[16]", "result": 90, "unit": "%"}, {"measurement": "Activity", "setting": "[17]", "result": 67, "unit": "%"}, {"measurement": "Activity", "setting": "[18]", "result": 66, "unit": "%"}, {"measurement": "Activity", "setting": "[19]", "result": 79, "unit": "%"}, {"measurement": "Activity", "setting": "[20]", "result": 73, "unit": "%"}, {"measurement": "Activity", "setting": "[21]", "result": 76, "unit": "%"}]}]}
